Laboratory results taken from ChEMBL document CHEMBL4033723, “Succinamide derivatives of melampomagnolide B and their anti-cancer activities” (2017).

Test: Induction of apoptosis in human M9-ENL1 cells assessed as cell death after 24 hrs by Annexin V/PI or 7-AAD staining based flow cytometry
Type: functional
Conditions: M9-ENL1, 24 h, read-out: LC50 (the source's name)

SMILES	CC50 [µM]
C=C1C(=O)O[C@H]2[C@H]1CC/C(COC(=O)CCC(=O)Nc1cccc(N)n1)=C\CC[C@@]1(C)O[C@@H]21	12
C=C1C(=O)O[C@H]2[C@H]1CC/C(COC(=O)CCC(=O)NCCCCCCCNC(=O)CCC(=O)OC/C1=C/CC[C@@]3(C)O[C@H]3[C@H]3OC(=O)C(=C)[C@@H]3CC1)=C\CC[C@@]1(C)O[C@@H]21	15
C=C1C(=O)O[C@H]2[C@H]1CC/C(COC(=O)CCC(=O)NCCc1ccccn1)=C\CC[C@@]1(C)O[C@@H]21	13.5
C=C1C(=O)O[C@H]2[C@H]1CC/C(COC(=O)CCC(=O)NCCCn1ccnc1)=C\CC[C@@]1(C)O[C@@H]21	> 20
C=C1C(=O)O[C@H]2[C@H]1CC/C(COC(=O)CCC(=O)NCCCCNC(=O)CCC(=O)OC/C1=C/CC[C@@]3(C)O[C@H]3[C@H]3OC(=O)C(=C)[C@@H]3CC1)=C\CC[C@@]1(C)O[C@@H]21	19
C=C1C(=O)O[C@H]2[C@H]1CC/C(COC(=O)CCC(=O)Nc1n[nH]c(SC)n1)=C\CC[C@@]1(C)O[C@@H]21	13
C=C1C(=O)O[C@H]2[C@H]1CC/C(COC(=O)CCC(=O)NCCN1CCOCC1)=C\CC[C@@]1(C)O[C@@H]21	20
C=C1C(=O)O[C@H]2[C@H]1CC/C(COC(=O)CCC(=O)NCCCN1CCOCC1)=C\CC[C@@]1(C)O[C@@H]21	14
C=C1C(=O)O[C@H]2[C@H]1CC/C(COC(=O)CCC(=O)N1CCN(C)CC1)=C\CC[C@@]1(C)O[C@@H]21	8.1
